Biological target: protein of SEQ ID NO 1 (yxel gene product) (Bacillus subtilis, UniProt P54948, G69A/I70F/P219S/T91M)
Details: sodium acetate 100 mM final concentration; substrate 0.2 mg/ml, 37°, 15 min, PBS buffer; compared with background activity of plasmid-free E. coli strain
Excerpt: Cells obtained as in example 2 were harvested by centrifugation and washed twice with PBS buffer to remove residual medium components. The final cell pellet was resuspended in PBS buffer (per liter water: 8 g NaCl, 0.2 g KCl, 1.44 g Na2HPO4, 0.24 g K H2PO4, pH 7.4) to reach a final OD600 of 30. This cell suspension of strains (either without plasmid or carrying the expression vectors described in Example 1) was used for the activity tests. The washed cell suspensions were contacted in PBS buffer with N-alpha-lauryl-glutamin (0.2 mg/ml final concentration, “LG” in FIG. 35), at 37° (final volume 0.25 ml) for 15 min. The actual test was performed as described in example 7 of WO 02/092024 A2, with GC as the test method.

protein of SEQ ID NO 1 (yxel gene product), sequence (P54948 whole entry G69A/I70F/T91M/P219S): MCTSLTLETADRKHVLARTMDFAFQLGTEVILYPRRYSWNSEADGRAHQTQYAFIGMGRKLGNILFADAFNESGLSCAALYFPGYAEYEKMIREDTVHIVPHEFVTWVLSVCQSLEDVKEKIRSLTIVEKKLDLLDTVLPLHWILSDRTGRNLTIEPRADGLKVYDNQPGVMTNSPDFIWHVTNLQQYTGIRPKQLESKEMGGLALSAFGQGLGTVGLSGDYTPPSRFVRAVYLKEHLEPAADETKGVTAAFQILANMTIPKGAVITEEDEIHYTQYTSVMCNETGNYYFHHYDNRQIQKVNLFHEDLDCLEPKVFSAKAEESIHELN

## CC(=O)[O-].[Na+] [sodium acetate]
  enzyme activity (inhibition of N-alpha-lauryl-glutamin cleavage): inhibited to the level of the background activity

— patent US9249448B2 (priority 2010, dated 2016)
